From patent US20110091387A1, “METHODS AND COMPOSITIONS FOR REDUCING SKIN DAMAGE” (THE GENERAL HOSPITAL CORPORATION, priority 2007, published 2011)
Structures can show the parent of a compound that is named as a salt.

Test system: RhoE promoter
Test: RhoE promoter luc2 luciferase reporter screen for inducers of RhoE expression
Type: cell-based
Settings: Table 1; luminescence at 24 hours, two replicates per compound
Procedure: To isolate compounds that can activate RhoE pathway in keratinocytes and protect against UVB exposure, a robust and sensitive chemical genetics approach was developed for the identification of small molecules that induce RhoE expression. Briefly, a reporter construct was created that included the RhoE promoter operatively linked to the luc2 luciferase reporter gene (FIG. 1A). Stable cell lines were produced that expressed the reporter construct, and the cells were plated in 384 well plates at ˜10,000 cells per well. The library test compounds were added to the plated cells at two replicates per compound, and the cells were incubated with the compounds for 24 hours. Luminescence was measured at 24 hours using a plate reader. The data were analyzed using Spotfire.

Structure (SMILES) | Composite Z value (induction of RhoE expression)
CCOC(=O)C1(O)Oc2cc(OC)cc(OC)c2C(=O)C1c1ccccc1 (stereo not shown) [2-ethoxycarbonyl-2-hydroxy-5,7-dimethoxyisoflavanone] | 2.164
O=c1c2ccccc2oc2ccc(O)cc12 [2-hydroxyxanthone] | 2.2158
COc1ccc2oc3ccccc3c(=O)c2c1 [2-methoxyxanthone] | 3.8383
Cc1ccc2cc3c(ccc4ccccc43)c3c2c1CC3 [3-methylcholanthrene] | 2.4062
COc1ccc(-c2cc(=O)c3ccccc3o2)cc1OC [3′,4′-dimethoxyflavone] | 2.21
O=C(/C=C/c1ccccc1)c1ccc(O)cc1 [4′-hydroxychalcone] | 2.8467
COc1ccc(C(=O)/C=C/c2ccccc2)cc1 [4′-methoxychalcone] | 3.8036
COc1ccccc1-c1cc(=O)c2c(OC)cccc2o1 [5,2′-dimethoxyflavone] | 3.0257
COc1ccc(-c2cc(=O)c3c(OC)cc(OC)cc3o2)cc1 [5,7,4′-trimethoxyflavone] | 5.4102
COc1cc(OC)c2c(=O)c(-c3ccccc3)coc2c1 [5,7-dimethoxyisoflavone] | 3.2977
COc1ccc(-c2coc3cc(OC)ccc3c2=O)cc1 [7,4′-dimethoxyisoflavone] | 3.0721
COc1ccccc1-c1cc(=O)c2cccc(OC)c2o1 [8,2′-dimethoxyflavone] | 2.7326
COc1ccc(-c2cc(=O)c3c(O)cc(O)cc3o2)cc1 [Acacetin] | 3.2375
CCCSc1ccc2nc(NC(=O)OC)[nH]c2c1 [Albendazole, reference compound] | 3.0534
O=C1c2ccccc2-c2cccc3cccc1c23 [Benzanthrone] | 2.735
CCCCOC(=O)c1ccc(O)cc1 [Butylparaben] | 2.6043
CC(C)OC(=O)Nc1cccc(Cl)c1 [Chlorpropham] | 2.5656
O=c1cc(-c2ccc(O)cc2)oc2cc(O[C@@H]3O[C@H](CO)[C@@H](O)[C@H](O)[C@H]3O)cc(O)c12 [Cosmosiin] | 4.8646
COc1cc(OC)c2c(=O)c(-c3ccc4c(c3)OCO4)coc2c1 [Derrustone] | 2.3814
O=C(CC(=O)c1ccccc1)c1ccccc1 [Dibenzoylmethane] | 3.651

Structure (SMILES) | Composite Z value (induction of RhoE expression)
COc1ccc(-c2cc(=O)c3c(O)cc(O)cc3o2)cc1O [Diosmetin] | 4.5672
O=C(Nc1ccccc1)Nc1ccccc1 [Diphenylurea] | 3.1382
O=c1c2ccccc2[se]n1-c1ccccc1 [Ebselen] | 2.3104
C[C@]12CC[C@H]3C(=CCc4cc(O)ccc43)[C@@H]1CCC2=O [Equilin, reference compound] | 2.3429
C=C(C)c1cc2cc(C(C)=O)c(O)cc2o1 [Euparin] | 2.4662
O=c1c(-c2ccc(O)cc2)coc2cc(O)cc(O)c12 [Genistein] | 2.5938
C=C1C(=O)O[C@@H]2C[C@@]3(C)CCC[C@H](C)C3=C[C@H]12 [Helenine] | 2.473
O=c1cc(-c2cc(O)c(O)c(O)c2)oc2cc(O)cc(O)c12 [Hieracin] | 3.8448
COc1cc(-c2coc3cc(O[C@@H]4O[C@H](CO)[C@@H](O)[C@H](O)[C@H]4O)c(OC)c(O)c3c2=O)cc(O)c1OC [Iridin] | 2.7194
O=c1cc(-c2ccc(O)c(O)c2)oc2cc(O)cc(O)c12 [Luteolin] | 2.3069
Oc1ccc2c(c1)OC[C@H]1c3cc4c(cc3O[C@@H]21)OCO4 [Maackiain] | 2.2116
COC(=O)Nc1nc2ccc(SC(C)C)cc2[nH]1 [Methiazole] | 2.2516
Oc1ccc(OCc2ccccc2)cc1 [Monobenzone, reference compound] | 2.1629
O=C1C[C@@H](c2ccc(O)cc2)Oc2cc(O)cc(O)c21 [Naringenin] | 2.3231
COc1ccc(CC(=O)c2ccc(O)cc2O)cc1 [Ononetin] | 2.6414
CCCOc1ccc2nc(NC(=O)OC)[nH]c2c1 [Oxibendazole, reference compound] | 2.2003
CC(C)N(C(=O)CCl)c1ccccc1 [Propachlor] | 2.8556
CCN(CC)CCCC(C)Nc1c2ccc(Cl)cc2nc2ccc(OC)cc12 (stereo not shown) [Quinacrine dihydrochloride dihydrate, reference compound] | 2.324
COc1cc(O)c2c(=O)c(O)c(-c3ccc(O)c(O)c3)oc2c1 [Rhamnetin] | 2.1577
CNc1ccccc1C(=O)N1CCc2c([nH]c3ccccc23)C1=O [Rhetsinine] | 3.357

Structure (SMILES) | Composite Z value (induction of RhoE expression)
c1ccc2[nH]c(-c3cscn3)nc2c1 [Tiabendazole, reference compound] | 3.5924
CCN(CC)CCOc1ccc2c(c1)C(=O)c1cc(OCCN(CC)CC)ccc1-2 [Tilorone, reference compound] | 3.4862
CC1=C(/C=C/C(C)=C/C=C/C(C)=C/C(=O)O)C(C)(C)CCC1 [Tretinoin, reference compound] | 2.2603
O=c1c2ccccc2oc2ccccc12 [Xanthone] | 3.79
CC1(C)C=Cc2cc3ccc(=O)oc3cc2O1 [Xanthyletin] | 2.6831
COc1ccc(-c2cc(=O)c3c(OC(C)=O)cc(OC(C)=O)cc3o2)cc1 [acacetin diacetate] | 3.977
CC(=O)Oc1ccc(-c2cc(=O)c3c(OC(C)=O)cc(OC(C)=O)cc3o2)cc1 [apigenin triacetate] | 4.6992
Cl.NNCc1ccccc1 [benzylhydrazine hydrochloride] | 2.3759
COc1ccc(-c2coc3cc(OC(C)=O)cc(OC(C)=O)c3c2=O)cc1 [biochanin a diacetate] | 3.6564
COc1ccc(-c2coc3cc(O)cc(O)c3c2=O)cc1 [biochanin a] | 3.2901
COc1cc(OC)c2c(=O)cc(-c3ccccc3)oc2c1 [chrysin dimethyl ether] | 3.477
COc1ccc2c(=O)c(-c3cc4c(cc3OC)OCO4)coc2c1 [cuneatin methyl ether] | 2.23
C=CC(C1=CC(=O)C(OC)=CC1=O)c1ccc(O)cc1 (stereo not shown) [dalbergione, 4-methoxy-4′-hydroxy-] | 2.3862
CC[C@H]1OC(=O)[C@H](C)[C@@H](O[C@H]2C[C@@](C)(OC)[C@@H](O)[C@H](C)O2)[C@H](C)[C@@H](O[C@@H]2O[C@H](C)C[C@H](N(C)C)[C@H]2O)[C@](C)(O)C[C@@H](C)C(=O)[C@H](C)[C@@H](O)[C@]1(C)O [erythromycin stearate, reference compound] | 3.1488
COc1cc(O)c(C(=O)/C=C/c2ccccc2)c(OC)c1 [flavokawain b] | 3.604
NNc1nncc2ccccc12 [hydralazine hydrochloride, reference compound] | 2.3583
COc1ccc(C2CC(=O)c3ccc(OC)cc3O2)cc1 (stereo not shown) [liquiritigenin dimethyl ether] | 4.6362
CC(C)C[C@H](NC(=O)OCC1c2ccccc2-c2ccccc21)C(=O)O [n-(9-fluorenylmethoxycarbonyl)-1-leucine] | 2.8734
COc1ccc2c(c1)OCC(=Cc1ccc(O)c(O)c1)C2=O [sappanone a 7-methyl ether] | 2.4579
COC(=O)C(C)c1ccc(C(=O)c2cccs2)cc1 (stereo not shown) [suprofen methyl ester] | 3.2205

Same assay, conditions: Table 2; luminescence at 24 hours, two replicates

Structure (SMILES) | Composite Z
COc1ccc(-c2cc(=O)c3c(OC)cc(OC)cc3o2)cc1 [5,7,4′-trimethoxyflavone] | 5.4102
O=c1cc(-c2ccc(O)cc2)oc2cc(O)cc(O)c12 [Apigenin] | 5.3515
O=c1cc(-c2ccccc2)oc2cc(O)cc(O)c12 [Chrysin] | 5.4731

Same assay, conditions: Table 2; luminescence at 24 hours, two replicates; listed as apigenin

Structure (SMILES) | Composite Z
O=c1cc(-c2ccc(O)cc2)oc2cc(O)cc(O)c12 [Apigenin] | 5.8729
